Six compounds from ChEMBL document CHEMBL5724914, “Linking interpersonal differences in gut microbiota composition and drug biotransformation activity” (2024) can be followed below.

Series [1] in a line: The drug is tested on WLS-310 corresponding to human gut metagenome with ENA study accession number: PRJEB37062 and ENA sample accession number: ERS12561785 for biotransformation under anaerobic condition. The drug concentrations were measured over 9 timepoints collected between 0 and 24 hours of incubation by liquid-chromatography-coupled mass spectrometry (LC–MS). The settings on record: 2 µM.

Series [2] is described as follows: The drug is tested on Z-003 corresponding to pig gut metagenome with ENA study accession number: PRJEB37062 and ENA sample accession number: ERS12561803 for biotransformation under anaerobic condition. The drug concentrations were measured over 9 timepoints collected between 0 and 24 hours of incubation by liquid-chromatography-coupled mass spectrometry (LC–MS). The conditions noted are these: 2 µM.

The nature of series [3]: The drug is tested on Z-017 corresponding to mouse gut metagenome with ENA study accession number: PRJEB37062 and ENA sample accession number: ERS12561816 for biotransformation under anaerobic condition. The drug concentrations were measured over 9 timepoints collected between 0 and 24 hours of incubation by liquid-chromatography-coupled mass spectrometry (LC–MS). The conditions noted are these: 2 µM.

For series [4] the following is noted: human gut metagenome, 24 h, 2 µM.
Series [5] in a line: The drug is tested on Z-026 corresponding to metagenome with ENA study accession number: PRJEB37062 and ENA sample accession number: ERS12561825 for biotransformation under anaerobic condition. The drug concentrations were measured over 9 timepoints collected between 0 and 24 hours of incubation by liquid-chromatography-coupled mass spectrometry (LC–MS). The conditions noted are these: 2 µM.

For series [6] the following is noted: human gut metagenome, 24 h, 2 µM. The source holds these as a separate data set.
The conditions of series [7]: human gut metagenome, 24 h, 2 µM. The source holds these as a separate data set.
The conditions of series [8]: human gut metagenome, 24 h, 2 µM. This is another data set of the same source.
Series [9] can be described thus: The drug is tested on Z-012 corresponding to metagenome with ENA study accession number: PRJEB37062 and ENA sample accession number: ERS12561812 for biotransformation under anaerobic condition. The drug concentrations were measured over 9 timepoints collected between 0 and 24 hours of incubation by liquid-chromatography-coupled mass spectrometry (LC–MS). The conditions noted are these: 2 µM.

The conditions of series [10]: human gut metagenome, 24 h, 2 µM. This is another data set of the same source.
A short description of series [11]: The drug is tested on Z-028 corresponding to mouse gut metagenome with ENA study accession number: PRJEB37062 and ENA sample accession number: ERS12561827 for biotransformation under anaerobic condition. The drug concentrations were measured over 9 timepoints collected between 0 and 24 hours of incubation by liquid-chromatography-coupled mass spectrometry (LC–MS). The conditions noted are these: 2 µM.

The conditions of series [12]: human gut metagenome, 24 h, 2 µM. This is another data set of the same source.
The conditions of series [13]: human gut metagenome, 24 h, 2 µM. The source holds these as a separate data set.
Series [14] can be described thus: The drug is tested on WLS-240 corresponding to human gut metagenome with ENA study accession number: PRJEB37062 and ENA sample accession number: ERS12561773 for biotransformation under anaerobic condition. The drug concentrations were measured over 9 timepoints collected between 0 and 24 hours of incubation by liquid-chromatography-coupled mass spectrometry (LC–MS). The conditions noted are these: 2 µM.

Series [15] can be described thus: The drug is tested on Z-006 corresponding to mouse gut metagenome with ENA study accession number: PRJEB37062 and ENA sample accession number: ERS12561806 for biotransformation under anaerobic condition. The drug concentrations were measured over 9 timepoints collected between 0 and 24 hours of incubation by liquid-chromatography-coupled mass spectrometry (LC–MS). The conditions noted are these: 2 µM.

For series [16] the following is noted: human gut metagenome, 24 h, 2 µM. The source holds these as a separate data set.
For series [17] the following is noted: human gut metagenome, 24 h, 2 µM. This is another data set of the same source.
The conditions of series [18]: human gut metagenome, 24 h, 2 µM. The source holds these as a separate data set.
The conditions of series [19]: human gut metagenome, 24 h, 2 µM. This is another data set of the same source.
For series [20] the following is noted: human gut metagenome, 24 h, 2 µM. The source holds these as a separate data set.
Also: call rule not given here.

Consider `Nc1c2c(nc3ccccc13)CCCC2` [TACRINE], for which the “Bacterial Biotransformation” value is on record as “Compound metabolized” in series [1]; “Compound NOT metabolized” in series [2]; “Compound NOT metabolized” in series [3]; “Compound NOT metabolized” in [4]; “Compound NOT metabolized” in series [5]; “Compound metabolized” in series [6]. Further, the “Bacterial Biotransformation” value in series [7] was “Compound metabolized”; in [8], “Compound metabolized”; in series [9] it was “Compound NOT metabolized”; in [10], “Compound NOT metabolized”; in [11], “Compound NOT metabolized”; in [12], “Compound NOT metabolized”. Moreover, the “Bacterial Biotransformation” value in [13] is “Compound NOT metabolized”; in [14] it was “Compound metabolized”; in series [15], “Compound NOT metabolized”; in series [16] it was “Compound metabolized”; in series [17], “Compound NOT metabolized”; in series [18], “Compound NOT metabolized”. Moreover, the results for the “Bacterial Biotransformation” value in [19] and in series [20] were “Compound metabolized” and “Compound NOT metabolized”, respectively.
Consider `Cc1ccc(S(=O)(=O)NC(=O)NN2CCCCCC2)cc1` [TOLAZAMIDE], for which the “Bacterial Biotransformation” value in series [1] is given as “Compound metabolized”; in series [2], “Compound metabolized”; in [3], “Compound NOT metabolized”; in [4], “Compound metabolized”; in series [5], “Compound NOT metabolized”; in [6] it was “Compound metabolized”. The “Bacterial Biotransformation” value in series [7] is reported as “Compound metabolized”; in series [8], “Compound metabolized”; in series [9] it was “Compound metabolized”; in [10], “Compound NOT metabolized”; in series [11] it was “Compound metabolized”; in series [12], “Compound metabolized”. In addition, the “Bacterial Biotransformation” value is on record as “Compound NOT metabolized” in series [13]; “Compound metabolized” in [14]; “Compound metabolized” in series [15]; “Compound metabolized” in series [16]; “Compound metabolized” in series [17]; “Compound metabolized” in [18]. Moreover, the “Bacterial Biotransformation” value in series [19] and in [20] was “Compound metabolized” in each case.
As to `CCOC(=O)[C@H](CCc1ccccc1)N[C@@H](C)C(=O)N1[C@H](C(=O)O)C[C@H]2CCCC[C@@H]21` [TRANDOLAPRIL], the “Bacterial Biotransformation” value was “Compound metabolized” in series [1]; “Compound metabolized” in series [2]; “Compound NOT metabolized” in series [3]; “Compound metabolized” in series [4]; “Compound NOT metabolized” in series [5]; “Compound metabolized” in series [6]. The “Bacterial Biotransformation” value in series [7] was “Compound metabolized”; in [8], “Compound metabolized”; in series [9], “Compound NOT metabolized”; in series [10] it was “Compound NOT metabolized”; in series [11] it was “Compound NOT metabolized”; in [12], “Compound NOT metabolized”. Further, the “Bacterial Biotransformation” value was “Compound NOT metabolized” in [13]; “Compound metabolized” in [14]; “Compound NOT metabolized” in series [15]; “Compound metabolized” in series [16]; “Compound NOT metabolized” in [17]; “Compound metabolized” in [18]. Further, the “Bacterial Biotransformation” value in series [19] and in series [20] was “Compound metabolized” each time.
In the case of `CC(CN(C)C)CN1c2ccccc2CCc2ccccc21.O=C(O)/C=C\C(=O)O` (stereo not given) [TRIMIPRAMINE MALEATE], the “Bacterial Biotransformation” value in series [1] is reported as “Compound metabolized”; in [2], “Compound metabolized”; in series [3], “Compound NOT metabolized”; in series [4] it was “Compound metabolized”; in [5], “Compound metabolized”; in series [6] it was “Compound NOT metabolized”. In addition, the “Bacterial Biotransformation” value in [7] is “Compound metabolized”; in series [8] it was “Compound metabolized”; in series [9], “Compound metabolized”; in series [10], “Compound NOT metabolized”; in [11], “Compound NOT metabolized”; in [12], “Compound metabolized”. The “Bacterial Biotransformation” value is given as “Compound NOT metabolized” in series [13]; “Compound metabolized” in series [14]; “Compound NOT metabolized” in series [15]; “Compound metabolized” in series [16]; “Compound metabolized” in series [17]; “Compound NOT metabolized” in [18]. The “Bacterial Biotransformation” value in series [19] is on record as “Compound metabolized”; in series [20], “Compound NOT metabolized”.
As to `CC(=O)CC(c1ccccc1)c1c(O)c2ccccc2oc1=O` (stereo not given) [WARFARIN], the “Bacterial Biotransformation” value in series [1] is “Compound metabolized”; in [2], “Compound metabolized”; in [3], “Compound NOT metabolized”; in [4], “Compound metabolized”; in [5], “Compound NOT metabolized”; in series [6], “Compound metabolized”. Besides, the “Bacterial Biotransformation” value in series [7], in series [8], in [9], in [10], in [11] and in series [12] was “Compound metabolized” throughout. The “Bacterial Biotransformation” value in series [13], in [14], in [15], in [16], in series [17] and in [18] was “Compound metabolized” throughout. For the same compound, the “Bacterial Biotransformation” value in [19] and in series [20] was “Compound metabolized” throughout.
As for `Cc1ccc(-c2nc3ccc(C)cn3c2CC(=O)N(C)C)cc1` [ZOLPIDEM], the “Bacterial Biotransformation” value in series [1] is reported as “Compound metabolized”; in series [2] it was “Compound metabolized”; in series [3] it was “Compound NOT metabolized”; in [4], “Compound metabolized”; in [5], “Compound NOT metabolized”; in [6], “Compound NOT metabolized”. The “Bacterial Biotransformation” value in series [7] is given as “Compound metabolized”; in series [8], “Compound metabolized”; in series [9], “Compound NOT metabolized”; in series [10] it was “Compound NOT metabolized”; in series [11] it was “Compound NOT metabolized”; in [12], “Compound NOT metabolized”. In addition, the “Bacterial Biotransformation” value is reported as “Compound NOT metabolized” in [13]; “Compound metabolized” in series [14]; “Compound NOT metabolized” in [15]; “Compound metabolized” in [16]; “Compound metabolized” in series [17]; “Compound NOT metabolized” in series [18]. The “Bacterial Biotransformation” value in series [19] is “Compound metabolized”; in series [20], “Compound NOT metabolized”.
